Test results: patent US8993618B2, “Composition for treating influenza A (H1N1) virus and a preparation method therefor” (priority 2010, dated 2015)
Converted amounts (≈) assume the structure as drawn. Like-named read-outs stand apart in the source and are kept apart here.

Experiments:
[1] = in vitro; settings: human
[2] = in vitro; settings: human; remark: listed apart in the source
[3] = in vitro; settings: human, IC50 cytotoxicity Hep 3B
[4] = in vitro; settings: human, IC50 cytotoxicity MCF 7
[5] = in vitro; settings: human; remark: listed apart in the source
[6] = in vitro; settings: human; remark: listed apart in the source
[7] = MTT cytotoxicity assay, Hep G2; settings: human, Hep G2 liver cancer cells
[8] = MTT cytotoxicity assay, MCF 7; settings: human, MCF 7 breast cancer cells, IC50 cytotoxicity MCF 7, MTT
[9] = MTT cytotoxicity assay, Ca9-22; settings: human, Ca9-22 oral cancer cells
[10] = MTT cytotoxicity assay, Hep 3B; settings: human, Hep 3B liver cancer cells, IC50 cytotoxicity Hep 3B
[11] = MTT cytotoxicity assay, MDA-MB-231; settings: human, MDA-MB-231 breast cancer cells
[12] = MTT cytotoxicity assay, A 549; settings: human, A 549 lung cancer cells
[13] = tested on: influenza A virus (H1N1); test: microbe, parasite or virus in culture; type: cell-based; settings: for IC50 / IC90: Influenza A virus; for IC50: read-out: IC50, influenza A (H1N1) antiviral activity; for IC90: read-out: IC90, influenza A (H1N1) antiviral activity
[14] = tested on: A 549 lung cancer cell line
[15] = tested on: Hep G2 liver cancer cell line
[16] = tested on: MDA-MB-231 breast cancer cell line
[17] = tested on: Ca9-22 oral cancer cell line
[18] = tested on: Hep 3B liver cancer cell line
[19] = tested on: MCF 7 breast cancer cell line
[20] = tested on: Ca9-22 oral cancer cell line; test: MTT cytotoxicity assay, Ca9-22; settings: MTT, 3 days
[21] = tested on: Hep G2 liver cancer cell line; test: MTT cytotoxicity assay, Hep G2; settings: MTT, 3 days
[22] = tested on: MCF 7 breast cancer cell line; test: MTT cytotoxicity assay, MCF 7; settings: MTT, 3 days
[23] = tested on: Hep 3B liver cancer cell line; test: MTT cytotoxicity assay, Hep 3B; settings: 3 days
[24] = tested on: MDA-MB-231 breast cancer cell line; test: MTT cytotoxicity assay, MDA-MB-231; settings: MTT, 3 days
[25] = tested on: A 549 lung cancer cell line; test: MTT cytotoxicity assay, A 549; settings: MTT, 3 days
[26] = H1N1, 72 h, MDCK cells, XTT, 3 days, concentration achieving 50% cytoprotection
[27] = H1N1, 72 h, MDCK cells, XTT, 3 days
[28] = MDCK cells, XTT, 3 days, concentration achieving 50% cytoprotection

## C[C@@H]1C[C@@H](O)[C@]2(C)[C@@H](C)C(=O)CC[C@H]2[C@]1(C)COc1ccc2ccc(=O)oc2c1 (single isomer, unassigned) [Kamolonol, kamolonol]
[1]
  IC50 at 3 days: > 20 µg/mL
[2]
  IC50 at 3 days: > 20 µg/mL
[3]
  IC50 at 3 days: 17.9 µg/mL (≈ 45 µM)
[4]
  IC50 at 3 days: > 20 µg/mL
[5]
  IC50 at 3 days: > 20 µg/mL
[6]
  IC50 at 3 days: > 20 µg/mL

## C=C1CC[C@]2(C)C(C)(C)[C@@H](OC(C)=O)CC[C@]2(C)[C@H]1COc1ccc2ccc(=O)oc2c1 (single isomer, unassigned) [Polyanthinin, polyanthinin]
[3]
  IC50 at 3 days: 5.9 µg/mL (≈ 13.5 µM)
[4]
  IC50 at 3 days: 9.94 µg/mL (≈ 22.7 µM)

## COc1cc(C=O)ccc1O (single isomer, unassigned) [Vanillin, vanillin]
[7]
  IC50 at 3 days: > 20 µg/mL
[8]
  IC50 at 3 days: 15.7 µg/mL (≈ 103 µM)
[9]
  IC50 at 3 days: > 20 µg/mL
[10]
  IC50 at 3 days: > 20 µg/mL
[11]
  IC50 at 3 days: > 20 µg/mL
[12]
  IC50 at 3 days: 16.4 µg/mL (≈ 108 µM)

## NC12CC3CC(CC(C3)C1)C2 [Amantadine, reference compound]
[13]; H1N1, MDCK, 72 h
  IC50: 0.92 ± 0.04 µg/mL (≈ 6.08 µM)
  IC90: 1.73 ± 0.11 µg/mL (≈ 11.4 µM)

## CC(=O)O[C@H](CC/C(C)=C/CC/C(C)=C/COc1ccc2ccc(=O)oc2c1)C(C)(C)O [Compound 2, 10′R-Acetoxy-11′-hydroxyumbelliprenin]
[1]
  IC50 at 3 days: > 20 µg/mL
[2]
  IC50 at 3 days: > 20 µg/mL
[3]
  IC50 at 3 days: 19.8 µg/mL (≈ 44.7 µM)
[13]; [26]
  IC50: 0.94 ± 0.07 µg/mL (≈ 2.12 µM)
[13]; [27]
  IC90: 1.98 ± 0.12 µg/mL (≈ 4.47 µM)
[4]
  IC50 at 3 days: > 20 µg/mL
[5]
  IC50 at 3 days: > 20 µg/mL
[6]
  IC50 at 3 days: > 20 µg/mL

## CC(C)=CCC/C(C)=C/C(O)C/C(C)=C/COc1ccc2ccc(=O)oc2c1 (stereo not drawn) [Compound 4, 5′-hydroxyumbelliprenin]
[13]; MDCK cells, XTT, 3 days
  IC90, influenza A (H1N1) antiviral activity: 0.62 ± 0.08 µg/mL (≈ 1.62 µM)
[13]; [28]
  IC50, influenza A (H1N1) antiviral activity: 0.36 ± 0.03 µg/mL (≈ 0.941 µM)

## C/C(=C\COc1ccc2ccc(=O)oc2c1)CC/C=C(\C)CCC(O)C(C)(C)O (stereo not drawn) [Compound 5, 10′R-karatavicinol]
[14]
  IC50 cytotoxicity A 549: 10.97 µg/mL (≈ 27.4 µM)
[15]
  IC50 cytotoxicity Hep G2: >20 µg/mL
[16]
  IC50 cytotoxicity MDA-MB-231: >20 µg/mL
[17]
  IC50 cytotoxicity Ca9-22: >20 µg/mL
[13]; MDCK cells, XTT, 3 days
  IC90, influenza A (H1N1) antiviral activity: 2.05 ± 0.14 µg/mL (≈ 5.12 µM)
[13]; [28]
  IC50, influenza A (H1N1) antiviral activity: 0.99 ± 0.07 µg/mL (≈ 2.47 µM)
[18]
  IC50 cytotoxicity Hep 3B: >20 µg/mL
[19]
  IC50 cytotoxicity MCF 7: 14.27 µg/mL (≈ 35.6 µM)

## CC(=O)OC(CC=C(C)C)/C(C)=C/[C@@H](O)C/C(C)=C/COc1ccc2ccc(=O)oc2c1 (stereo partly drawn) [Compound 6, 8′-acetoxy-5′S-hydroxyumbelliprenin]
[14]
  IC50 cytotoxicity A 549: >20 µg/mL
[15]
  IC50 cytotoxicity Hep G2: 15.59 µg/mL (≈ 35.4 µM)
[16]
  IC50 cytotoxicity MDA-MB-231: >20 µg/mL
[17]
  IC50 cytotoxicity Ca9-22: 14.23 µg/mL (≈ 32.3 µM)
[13]; MDCK cells, XTT, 3 days
  IC90, influenza A (H1N1) antiviral activity: 1.56 ± 0.11 µg/mL (≈ 3.54 µM)
[13]; [28]
  IC50, influenza A (H1N1) antiviral activity: 0.81 ± 0.06 µg/mL (≈ 1.84 µM)
[18]
  IC50 cytotoxicity Hep 3B: 9.82 µg/mL (≈ 22.3 µM)
[19]
  IC50 cytotoxicity MCF 7: >20 µg/mL

## COC(=O)CC[C@H]1C(=C(C)C)CC[C@H](C)[C@]1(C)COc1ccc2ccc(=O)oc2c1 [Compound 7, methyl galbanate]
[3]
  IC50 at 3 days: 4.33 µg/mL (≈ 10.5 µM)
[13]; [26]
  IC50: 0.26 ± 0.03 µg/mL (≈ 0.63 µM)
[13]; [27]
  IC90: 0.44 ± 0.05 µg/mL (≈ 1.07 µM)
[4]
  IC50 at 3 days: > 20 µg/mL

## CC(C)=C1CC[C@H](C)[C@](C)(COc2ccc3ccc(=O)oc3c2)[C@H]1CCC(=O)O [Compound 8, galbanic acid]
[13]; [26]
  IC50: 0.45 ± 0.04 µg/mL (≈ 1.13 µM)
[13]; [27]
  IC90: 0.88 ± 0.07 µg/mL (≈ 2.21 µM)

## C/C(=C\COc1ccc2ccc(=O)oc2c1)CC[C@@H]1C(C)(C)[C@H]2CC[C@]1(C)O2 [Compound 9, farnesiferol C]
[13]; MDCK cells, XTT, 3 days
  IC90, influenza A (H1N1) antiviral activity: 0.50 ± 0.07 µg/mL (≈ 1.31 µM)
[13]; [28]
  IC50, influenza A (H1N1) antiviral activity: 0.29 ± 0.02 µg/mL (≈ 0.758 µM)

## C=C1CC[C@@H]2C(C)(C)[C@H](O)CC[C@@]2(C)[C@H]1COc1ccc2ccc(=O)oc2c1 [Compound 10, farnesiferol A]
[14]
  IC50 cytotoxicity A 549: 15.79 µg/mL (≈ 41.3 µM)
[20]
  IC50 cytotoxicity Ca9-22: 12.07 µg/mL (≈ 31.6 µM)
[15]
  IC50 cytotoxicity Hep G2: 14.89 µg/mL (≈ 38.9 µM)
[16]
  IC50 cytotoxicity MDA-MB-231: 19.00 µg/mL (≈ 49.7 µM)
[13]; MDCK cells, XTT, 3 days
  IC90, influenza A (H1N1) antiviral activity: 0.64 ± 0.07 µg/mL (≈ 1.67 µM)
[13]; [28]
  IC50, influenza A (H1N1) antiviral activity: 0.51 ± 0.04 µg/mL (≈ 1.33 µM)
[18]
  IC50 cytotoxicity Hep 3B: 7.66 µg/mL (≈ 20 µM)
[19]
  IC50 cytotoxicity MCF 7: 15.57 µg/mL (≈ 40.7 µM)

## CC1=CC[C@@H]2C(C)(C)[C@@H](O)CC[C@@]2(C)[C@@H]1COc1ccc2ccc(=O)oc2c1 [Compound 11, conferol]
[3]
  IC50 at 3 days: 2.6 µg/mL (≈ 6.8 µM)
[13]; [26]
  IC50: 0.47 ± 0.05 µg/mL (≈ 1.23 µM)
[13]; [27]
  IC90: 0.83 ± 0.09 µg/mL (≈ 2.17 µM)
[18]; human, 3 days
  IC50 cytotoxicity Hep 3B: 2.63 µg/mL (≈ 6.88 µM)
[19]; human, 3 days
  IC50 cytotoxicity MCF 7: 3.38 µg/mL (≈ 8.84 µM)
[4]
  IC50 at 3 days: 3.4 µg/mL (≈ 8.89 µM)

## CC1=CC(=O)[C@@H]2C(C)(C)[C@H](O)CC[C@@]2(C)[C@@H]1COc1ccc2ccc(=O)oc2c1 [Compound 12, ligupersin A]
[13]; MDCK cells, XTT, 3 days
  IC90, influenza A (H1N1) antiviral activity: 1.75 ± 0.12 µg/mL (≈ 4.41 µM)
[13]; [28]
  IC50, influenza A (H1N1) antiviral activity: 0.86 ± 0.08 µg/mL (≈ 2.17 µM)

## CC1=CC(=O)[C@@H]2C(C)(C)C(=O)CC[C@@]2(C)[C@@H]1COc1ccc2ccc(=O)oc2c1 [Compound 13, epi-conferdione]
[13]; MDCK cells, XTT, 3 days
  IC90, influenza A (H1N1) antiviral activity: 0.37 ± 0.03 µg/mL (≈ 0.938 µM)
[13]; [28]
  IC50, influenza A (H1N1) antiviral activity: 0.32 ± 0.02 µg/mL (≈ 0.811 µM)

## COc1cccc2c1C(=O)c1c(O)c3c(c(O)c1C2=O)C[C@@](O)(C(=O)CO)C[C@@H]3O[C@H]1C[C@H](N)[C@H](O)[C@H](C)O1 [Doxorubicin, reference compound]
[7]
  IC50 at 3 days: 0.16 µg/mL (≈ 0.294 µM)
[9]
  IC50 at 3 days: 0.14 µg/mL (≈ 0.258 µM)
[10]
  IC50 at 3 days: 0.41 µg/mL (≈ 0.754 µM)
[12]
  IC50 at 3 days: 0.35 µg/mL (≈ 0.644 µM)

## foetisulfide C
[21]
  IC50 cytotoxicity Hep G2: >20 µg/mL
[22]
  IC50 cytotoxicity MCF 7: >20 µg/mL
[20]
  IC50 cytotoxicity Ca9-22: 16.48 µg/mL
[23]
  IC50 cytotoxicity Hep 3B: 19.21 µg/mL
[24]
  IC50 cytotoxicity MDA-MB-231: >20 µg/mL
[25]
  IC50 cytotoxicity A 549: 9.14 µg/mL
